Like-named read-outs stand apart in the source and are kept apart here.
What was measured:
USP30 = target: T1, USP30 (Homo sapiens, UniProt Q70CQ3); test: biochemical; conditions: USP30 10 nM, Ub-rhodamine110
T1 construct: purchased LifeSensors, Inc. (Malvern, PA)

[1] = system: viral replication in Vero E6 cells; conditions: viral replication in Vero E6 cells; cited from earlier work
USP7 = target: T2, USP7 (Homo sapiens, UniProt Q93009); test: biochemical; conditions: USP7 5 nM, Ub-CHOP2
T2 construct: purchased LifeSensors, Inc. (Malvern, PA)

USP15 = target: T3, USP15 (Homo sapiens, UniProt Q9Y4E8); test: DUB selectivity assay, USP15 (Ub-rhodamine110); assay type: biochemical; conditions: USP15 1 nM, Ub-rhodamine110; read-out: IC50
T3 construct: purchased LifeSensors, Inc. (Malvern, PA)
T3 sequence (Q9Y4E8 1-981): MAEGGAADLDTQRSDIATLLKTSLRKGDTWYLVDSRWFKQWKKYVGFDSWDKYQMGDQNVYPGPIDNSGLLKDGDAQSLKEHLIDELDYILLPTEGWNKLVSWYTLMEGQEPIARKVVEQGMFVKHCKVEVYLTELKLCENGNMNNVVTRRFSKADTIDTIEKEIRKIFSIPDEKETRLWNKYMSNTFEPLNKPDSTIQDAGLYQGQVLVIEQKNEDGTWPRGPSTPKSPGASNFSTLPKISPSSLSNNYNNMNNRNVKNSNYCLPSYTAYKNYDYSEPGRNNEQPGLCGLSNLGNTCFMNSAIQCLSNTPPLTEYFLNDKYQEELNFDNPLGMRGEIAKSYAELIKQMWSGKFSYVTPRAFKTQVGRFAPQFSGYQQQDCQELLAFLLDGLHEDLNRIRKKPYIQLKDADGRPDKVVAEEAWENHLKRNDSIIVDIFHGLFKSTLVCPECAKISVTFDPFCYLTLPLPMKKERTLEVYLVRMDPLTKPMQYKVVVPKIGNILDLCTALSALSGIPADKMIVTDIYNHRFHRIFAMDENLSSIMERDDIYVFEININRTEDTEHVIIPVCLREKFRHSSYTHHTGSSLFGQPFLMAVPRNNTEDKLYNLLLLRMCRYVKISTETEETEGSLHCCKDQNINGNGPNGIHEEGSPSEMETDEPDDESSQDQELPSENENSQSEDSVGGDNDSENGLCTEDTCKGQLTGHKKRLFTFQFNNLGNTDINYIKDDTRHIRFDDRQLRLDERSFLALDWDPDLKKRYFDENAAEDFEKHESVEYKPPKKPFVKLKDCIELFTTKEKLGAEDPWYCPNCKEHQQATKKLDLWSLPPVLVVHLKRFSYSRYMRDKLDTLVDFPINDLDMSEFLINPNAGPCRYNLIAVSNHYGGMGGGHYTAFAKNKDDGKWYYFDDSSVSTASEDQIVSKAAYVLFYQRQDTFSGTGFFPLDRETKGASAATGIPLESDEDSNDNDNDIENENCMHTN

PLpro from SARS-CoV-2 = PLpro from SARS-CoV-2 (Severe acute respiratory syndrome coronavirus 2, UniProt P0DTD1); test: biochemical; assay type: biochemical
USP8 = target: T4, USP8 (Homo sapiens, UniProt P40818); test: biochemical; conditions: USP8 10 nM, Ub-rhodamine110
T4 construct: USP2c, USP4, USP7, USP8c, USP15, USP30WT, and UCH-L1; purchased LifeSensors, Inc. (Malvern, PA)

[2] = system: SARS-CoV-2 isolate USA-WA1/2020; conditions: read-out: cytopathic effect, % cell viability, duplicate wells
Vero E6 cells = conditions: African green monkey, 48 h
USP2 = target: T5, USP2 (Homo sapiens, UniProt O75604); test: biochemical; conditions: USP2 10 nM, Ub-rhodamine110
T5 construct: USP2c, USP4, USP7, USP8c, USP15, USP30WT, and UCH-L1; purchased LifeSensors, Inc. (Malvern, PA)

USP4 = target: T6, USP4 (Homo sapiens, UniProt Q13107); test: DUB selectivity assay, USP4 (Ub-rhodamine110); assay type: biochemical; conditions: USP4 10 nM, Ub-rhodamine110; read-out: IC50
T6 construct: purchased LifeSensors, Inc. (Malvern, PA)
T6 sequence (Q13107 1-963): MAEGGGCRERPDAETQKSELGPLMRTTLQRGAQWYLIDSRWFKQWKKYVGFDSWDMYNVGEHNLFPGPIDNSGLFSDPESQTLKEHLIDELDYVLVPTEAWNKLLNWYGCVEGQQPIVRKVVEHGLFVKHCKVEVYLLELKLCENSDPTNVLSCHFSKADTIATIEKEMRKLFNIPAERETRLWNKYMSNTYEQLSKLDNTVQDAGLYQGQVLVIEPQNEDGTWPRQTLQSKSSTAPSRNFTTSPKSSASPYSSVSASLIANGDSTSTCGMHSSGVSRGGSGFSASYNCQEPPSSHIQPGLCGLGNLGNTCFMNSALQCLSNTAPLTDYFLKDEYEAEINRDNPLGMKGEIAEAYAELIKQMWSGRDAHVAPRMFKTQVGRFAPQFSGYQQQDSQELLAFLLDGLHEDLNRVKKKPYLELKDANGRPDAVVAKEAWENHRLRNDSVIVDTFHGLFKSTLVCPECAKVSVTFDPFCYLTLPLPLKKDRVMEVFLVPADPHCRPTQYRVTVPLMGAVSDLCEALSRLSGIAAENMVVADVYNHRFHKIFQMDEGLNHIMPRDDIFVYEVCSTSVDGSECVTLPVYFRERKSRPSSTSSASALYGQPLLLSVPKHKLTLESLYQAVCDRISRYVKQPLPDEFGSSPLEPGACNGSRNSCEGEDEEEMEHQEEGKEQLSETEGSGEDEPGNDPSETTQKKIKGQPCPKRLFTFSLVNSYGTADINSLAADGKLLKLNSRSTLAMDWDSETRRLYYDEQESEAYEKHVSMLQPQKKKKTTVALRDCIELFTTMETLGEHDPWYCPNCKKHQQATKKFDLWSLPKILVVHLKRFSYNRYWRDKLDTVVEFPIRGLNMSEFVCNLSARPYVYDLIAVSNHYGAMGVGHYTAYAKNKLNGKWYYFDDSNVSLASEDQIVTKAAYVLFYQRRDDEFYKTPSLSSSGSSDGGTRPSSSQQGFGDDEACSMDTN

SARS-CoV-2 PLpro [3] = target: T7, SARS-CoV-2 PLpro (Severe acute respiratory syndrome coronavirus 2, UniProt P0DTD1); test: biochemical; conditions: PLpro 50 nM, Ub-rhodamine110
SARS-CoV PLpro = conditions: cited from earlier work
UCHL1 = target: T8, UCHL1 (Homo sapiens, UniProt P09936); test: biochemical; conditions: UCHL1 10 nM, Ub-rhodamine110
T8 construct: purchased LifeSensors, Inc. (Malvern, PA)

in vitro = conditions: African green monkey, cytotoxicity, %cell viability
[4] = system: SARS-CoV-2 isolate USA-WA1/2020; test: microbe, parasite or virus in culture; conditions: duplicate wells
SARS-CoV-2 PLpro [5] = target: T7, SARS-CoV-2 PLpro; test: biochemical; conditions: PLpro 10 nM, ISG15-CHOP2

T5 sequence (O75604 267-599): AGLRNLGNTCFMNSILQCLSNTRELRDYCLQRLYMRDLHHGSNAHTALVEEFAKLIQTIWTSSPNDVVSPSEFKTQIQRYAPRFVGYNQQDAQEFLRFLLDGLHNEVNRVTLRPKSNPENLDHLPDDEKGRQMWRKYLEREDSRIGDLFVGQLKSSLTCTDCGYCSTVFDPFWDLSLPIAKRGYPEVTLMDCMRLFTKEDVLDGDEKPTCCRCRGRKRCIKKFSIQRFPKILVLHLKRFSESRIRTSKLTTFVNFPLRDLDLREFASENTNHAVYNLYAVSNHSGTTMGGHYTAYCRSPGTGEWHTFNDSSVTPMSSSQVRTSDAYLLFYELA
T2 sequence (Q93009 whole entry): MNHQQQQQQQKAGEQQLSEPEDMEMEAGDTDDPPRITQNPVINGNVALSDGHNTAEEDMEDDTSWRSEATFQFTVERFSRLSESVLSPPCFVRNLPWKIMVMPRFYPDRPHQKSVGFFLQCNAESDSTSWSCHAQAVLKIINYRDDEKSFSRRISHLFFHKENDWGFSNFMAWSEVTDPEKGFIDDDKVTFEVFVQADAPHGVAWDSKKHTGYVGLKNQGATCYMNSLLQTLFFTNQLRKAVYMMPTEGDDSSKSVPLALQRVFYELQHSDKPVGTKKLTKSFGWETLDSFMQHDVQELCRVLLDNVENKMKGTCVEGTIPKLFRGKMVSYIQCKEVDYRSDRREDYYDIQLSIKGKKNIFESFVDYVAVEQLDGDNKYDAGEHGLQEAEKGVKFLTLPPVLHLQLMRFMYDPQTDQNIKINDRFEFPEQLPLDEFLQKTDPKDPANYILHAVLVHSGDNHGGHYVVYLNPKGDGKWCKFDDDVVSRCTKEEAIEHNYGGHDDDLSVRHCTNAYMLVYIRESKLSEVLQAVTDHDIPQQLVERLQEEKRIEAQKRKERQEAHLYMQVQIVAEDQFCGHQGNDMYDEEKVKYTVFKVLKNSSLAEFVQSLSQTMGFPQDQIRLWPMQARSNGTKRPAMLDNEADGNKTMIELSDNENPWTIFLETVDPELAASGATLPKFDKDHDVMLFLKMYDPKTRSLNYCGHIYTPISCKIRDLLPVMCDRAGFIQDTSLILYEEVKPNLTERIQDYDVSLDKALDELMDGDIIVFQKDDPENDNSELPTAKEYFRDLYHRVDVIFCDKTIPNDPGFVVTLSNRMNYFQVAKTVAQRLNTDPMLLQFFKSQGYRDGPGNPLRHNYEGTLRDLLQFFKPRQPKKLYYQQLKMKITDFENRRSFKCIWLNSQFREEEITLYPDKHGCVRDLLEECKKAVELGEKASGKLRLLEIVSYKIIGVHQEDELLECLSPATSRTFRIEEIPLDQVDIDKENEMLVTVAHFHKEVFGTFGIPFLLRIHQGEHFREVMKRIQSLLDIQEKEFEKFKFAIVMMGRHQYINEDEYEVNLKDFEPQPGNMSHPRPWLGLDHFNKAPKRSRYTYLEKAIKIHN
T4 sequence (P40818 777-1109): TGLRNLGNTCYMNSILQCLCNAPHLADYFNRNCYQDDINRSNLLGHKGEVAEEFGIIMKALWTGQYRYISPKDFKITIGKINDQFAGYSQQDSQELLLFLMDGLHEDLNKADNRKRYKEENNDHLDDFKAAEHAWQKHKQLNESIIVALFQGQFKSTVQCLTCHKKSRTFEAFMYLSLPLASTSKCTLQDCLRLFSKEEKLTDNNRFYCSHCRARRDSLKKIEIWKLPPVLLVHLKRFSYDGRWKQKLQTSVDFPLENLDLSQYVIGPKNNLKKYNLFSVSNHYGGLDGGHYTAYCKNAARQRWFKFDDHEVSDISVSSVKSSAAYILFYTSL
T1 sequence (Q70CQ3 whole entry): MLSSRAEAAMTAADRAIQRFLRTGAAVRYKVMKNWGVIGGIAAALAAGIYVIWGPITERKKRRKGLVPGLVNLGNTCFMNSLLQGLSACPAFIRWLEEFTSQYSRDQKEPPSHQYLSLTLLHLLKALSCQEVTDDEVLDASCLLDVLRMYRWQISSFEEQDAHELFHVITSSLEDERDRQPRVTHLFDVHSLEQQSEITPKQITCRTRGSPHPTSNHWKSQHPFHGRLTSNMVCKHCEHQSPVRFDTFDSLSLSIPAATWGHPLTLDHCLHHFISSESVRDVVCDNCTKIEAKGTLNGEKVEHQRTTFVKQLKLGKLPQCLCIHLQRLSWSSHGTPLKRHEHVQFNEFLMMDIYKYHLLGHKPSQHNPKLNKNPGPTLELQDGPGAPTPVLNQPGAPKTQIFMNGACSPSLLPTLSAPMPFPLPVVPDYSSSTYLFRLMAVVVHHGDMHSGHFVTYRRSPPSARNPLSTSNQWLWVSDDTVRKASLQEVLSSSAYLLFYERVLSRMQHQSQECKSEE
T8 sequence (P09936 whole entry): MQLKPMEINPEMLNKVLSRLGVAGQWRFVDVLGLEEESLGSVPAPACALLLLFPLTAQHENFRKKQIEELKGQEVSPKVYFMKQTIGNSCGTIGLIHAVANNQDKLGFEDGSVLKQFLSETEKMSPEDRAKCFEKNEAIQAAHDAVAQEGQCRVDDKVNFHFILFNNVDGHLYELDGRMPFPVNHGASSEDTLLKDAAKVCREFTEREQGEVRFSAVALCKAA

CC(=O)Nc1ccc(C)c(C(=O)N[C@H](C)c2cccc3ccccc23)c1 [Compound 15, (R)-5-acetamido-2-methyl-N-(1-(naphthalen-1-yl)ethyl)benzamide]
IC50 (USP30): > 30 µM | EC50 [1]: 13.1 µM | IC50 (USP7): > 30 µM | IC50 (USP15): > 30 µM | remaining activity at 0.02 µM (PLpro from SARS-CoV-2; 0.5 h, inhibitor 0.02 uM): 115% | remaining activity at 0.06 µM (PLpro from SARS-CoV-2; 0.5 h, inhibitor 0.06 uM): 104% | remaining activity at 0.2 µM (PLpro from SARS-CoV-2; 0.5 h, inhibitor 0.20 uM): 110% | remaining activity at 2.01 µM (PLpro from SARS-CoV-2; 0.5 h, inhibitor 2.01 uM): 61.8% | remaining activity at 6.34 µM (PLpro from SARS-CoV-2; 0.5 h, inhibitor 6.34 uM): 56.9% | remaining activity at 20 µM (PLpro from SARS-CoV-2; 0.5 h, inhibitor 20.00 uM): 26.7% | IC50 (PLpro from SARS-CoV-2; after 30-min incubation, purified PLpro, Z-RLRGG-AMC substrate): 6.2 µM | IC50 (USP8): > 30 µM | inhibition ([2]; [inhibitor] 8.33 uM, 8.33 µM): 3.31% | inhibition ([2]; [inhibitor] 16.67 uM, 16.67 µM): 6.9% | cytotoxicity, %cell viability (Vero E6 cells; 2.08 µM): 75.89% | cytotoxicity, %cell viability (Vero E6 cells; 8.33 µM): 83.23% | cytotoxicity, %cell viability (Vero E6 cells; 16.67 µM): 80.07% | cytotoxicity, %cell viability (Vero E6 cells; 33.33 µM): 59.25% | IC50 (USP2): > 30 µM | IC50 (USP4): > 30 µM | Hill slope (SARS-CoV-2 PLpro [3]): 0.376 | IC50 (SARS-CoV-2 PLpro [3]): > 30 µM | IC50 (SARS-CoV PLpro): 2.6 µM | IC50 (UCHL1): > 30 µM | viability at 48 h, 2.08 µM (in vitro): 85.5% | viability at 48 h, 8.33 µM (in vitro): 85.8% | viability at 48 h, 16.67 µM (in vitro): 81.3% | viability at 48 h, 33.33 µM (in vitro): 64.9% | inhibition at 8.33 µM ([4]; Severe acute respiratory syndrome coronavirus 2, Vero C1008, read-out: cytopathic effect, % cell viability, [inhibitor] 8.33 uM): 5.51% | inhibition at 16.67 µM ([4]; Severe acute respiratory syndrome coronavirus 2, Vero C1008, read-out: cytopathic effect, % cell viability, [inhibitor] 16.67 uM): 8.63% | Hill slope (SARS-CoV-2 PLpro [5]): 0.969 | IC50 (SARS-CoV-2 PLpro [5]): > 30 µM

From publication PMC10044120, “Potent and selective covalent inhibition of the papain-like protease from SARS-CoV-2” (Nature Communications, 2023)
